# Assay results from ChEMBL document CHEMBL1250451, “Mechanistic insights into a Ca2+-dependent family of alpha-mannosidases in a human gut symbiont” (Nat Chem Biol, 2010).
# Experiments:
# Type in all cases: protein assay
# [1] = target: T1, Alpha-1,2-mannosidase (BT_2199) (Bacteroides thetaiotaomicron) (UniProt Q8A5N9); assay: Activity of Bacteroides thetaiotaomicron GH92 alpha-mannosidase 2199 assessed as recovery of enzyme activity at 1 mM in absence of metal and in presence of 5 mM EDTA in 100 mM pH 7 MOPS buffer relative to enzyme activity in presence of calcium
# T1 sequence (whole entry): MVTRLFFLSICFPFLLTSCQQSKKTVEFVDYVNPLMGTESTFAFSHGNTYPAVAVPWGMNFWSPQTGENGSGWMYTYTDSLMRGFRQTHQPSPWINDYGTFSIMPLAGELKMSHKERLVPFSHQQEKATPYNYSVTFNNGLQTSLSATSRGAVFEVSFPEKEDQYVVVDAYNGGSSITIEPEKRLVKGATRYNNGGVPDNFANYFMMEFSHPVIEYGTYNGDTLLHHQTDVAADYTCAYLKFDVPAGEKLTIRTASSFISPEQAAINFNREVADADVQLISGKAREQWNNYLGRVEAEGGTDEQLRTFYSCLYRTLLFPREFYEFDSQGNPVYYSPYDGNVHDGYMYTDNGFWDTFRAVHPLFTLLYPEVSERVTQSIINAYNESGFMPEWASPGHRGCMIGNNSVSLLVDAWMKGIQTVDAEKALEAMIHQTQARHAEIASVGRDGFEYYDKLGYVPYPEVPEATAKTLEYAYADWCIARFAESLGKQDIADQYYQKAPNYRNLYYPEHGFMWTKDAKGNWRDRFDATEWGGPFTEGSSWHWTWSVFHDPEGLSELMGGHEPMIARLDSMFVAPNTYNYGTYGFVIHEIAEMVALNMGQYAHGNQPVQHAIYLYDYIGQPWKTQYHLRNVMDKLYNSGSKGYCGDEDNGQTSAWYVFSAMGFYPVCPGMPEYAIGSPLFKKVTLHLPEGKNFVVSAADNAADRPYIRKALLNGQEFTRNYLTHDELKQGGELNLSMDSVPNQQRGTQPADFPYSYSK
# [2] = target: T2, Alpha-1,2-mannosidase (BT_3990) (Bacteroides thetaiotaomicron) (UniProt Q8A0N1); assay: Activity of Bacteroides thetaiotaomicron GH92 alpha-mannosidase 3990 assessed as recovery of enzyme activity at 1 mM in presence of 7 mM Ti(3+) ions and in presence of 5 mM EGTA in 100 mM pH 7 MOPS buffer relative to enzyme activity in presence of calcium
# T2 sequence (whole entry): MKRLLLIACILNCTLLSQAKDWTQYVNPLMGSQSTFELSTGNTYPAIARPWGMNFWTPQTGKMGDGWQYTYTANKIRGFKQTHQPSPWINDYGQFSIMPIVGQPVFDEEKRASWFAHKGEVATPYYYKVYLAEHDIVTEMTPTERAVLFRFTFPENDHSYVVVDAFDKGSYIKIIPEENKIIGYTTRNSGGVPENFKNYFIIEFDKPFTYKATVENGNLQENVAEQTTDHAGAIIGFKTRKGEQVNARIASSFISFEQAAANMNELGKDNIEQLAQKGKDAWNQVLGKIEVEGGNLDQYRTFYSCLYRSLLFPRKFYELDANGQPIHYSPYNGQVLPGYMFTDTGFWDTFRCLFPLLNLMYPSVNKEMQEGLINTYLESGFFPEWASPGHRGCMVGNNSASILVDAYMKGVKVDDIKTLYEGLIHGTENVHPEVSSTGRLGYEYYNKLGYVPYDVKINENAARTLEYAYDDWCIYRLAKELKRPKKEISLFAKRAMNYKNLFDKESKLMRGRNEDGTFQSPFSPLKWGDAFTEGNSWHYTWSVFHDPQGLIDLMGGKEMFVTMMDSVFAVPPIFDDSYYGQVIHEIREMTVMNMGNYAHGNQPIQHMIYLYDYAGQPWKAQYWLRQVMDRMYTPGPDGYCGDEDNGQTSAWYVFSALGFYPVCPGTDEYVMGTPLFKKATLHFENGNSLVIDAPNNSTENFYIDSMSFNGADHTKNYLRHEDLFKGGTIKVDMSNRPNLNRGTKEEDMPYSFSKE
# [3] = target: T2, Alpha-1,2-mannosidase (BT_3990) (Bacteroides thetaiotaomicron); assay: Activity of Bacteroides thetaiotaomicron GH92 alpha-mannosidase 3990 assessed as recovery of enzyme activity at 1 mM in presence of 7 mM Mn(2+) ions and in presence of 5 mM EGTA in 100 mM pH 7 MOPS buffer relative to enzyme activity in presence of calcium
# [4] = target: T2, Alpha-1,2-mannosidase (BT_3990) (Bacteroides thetaiotaomicron); assay: Activity of Bacteroides thetaiotaomicron GH92 alpha-mannosidase 3990 assessed as recovery of enzyme activity at 1 mM in presence of 7 mM Sr(2+) ions and in presence of 5 mM EDTA in 100 mM pH 7 MOPS buffer relative to enzyme activity in presence of calcium
# [5] = target: T2, Alpha-1,2-mannosidase (BT_3990) (Bacteroides thetaiotaomicron); assay: Activity of Bacteroides thetaiotaomicron GH92 alpha-mannosidase 3990 assessed as recovery of enzyme activity at 1 mM in presence of 7 mM Zn(2+) ions and in presence of 5 mM EDTA in 100 mM pH 7 MOPS buffer relative to enzyme activity in presence of calcium
# [6] = target: T1, Alpha-1,2-mannosidase (BT_2199) (Bacteroides thetaiotaomicron); assay: Activity of Bacteroides thetaiotaomicron GH92 alpha-mannosidase 2199 assessed as recovery of enzyme activity at 1 mM in presence of 7 mM Ti(3+) ions and in presence of 5 mM EDTA in 100 mM pH 7 MOPS buffer relative to enzyme activity in presence of calcium
# [7] = target: T2, Alpha-1,2-mannosidase (BT_3990) (Bacteroides thetaiotaomicron); assay: Activity of Bacteroides thetaiotaomicron GH92 alpha-mannosidase 3990 assessed as recovery of enzyme activity at 1 mM in presence of 7 mM Sc(3+) ions and in presence of 5 mM EGTA in 100 mM pH 7 MOPS buffer relative to enzyme activity in presence of calcium
# [8] = target: T2, Alpha-1,2-mannosidase (BT_3990) (Bacteroides thetaiotaomicron); assay: Activity of Bacteroides thetaiotaomicron GH92 alpha-mannosidase 3990 assessed as recovery of enzyme activity at 1 mM in presence of 7 mM Ca(2+) ions and in presence of 5 mM EGTA in 100 mM pH 7 MOPS buffer relative to enzyme activity in presence of calcium
# [9] = target: T1, Alpha-1,2-mannosidase (BT_2199) (Bacteroides thetaiotaomicron); assay: Activity of Bacteroides thetaiotaomicron GH92 alpha-mannosidase 2199 assessed as recovery of enzyme activity at 1 mM in absence of metal and in presence of 5 mM EGTA in 100 mM pH 7 MOPS buffer relative to enzyme activity in presence of calcium
smiles,measurement,setting,value
O=[N+]([O-])c1ccc(O[C@H]2O[C@H](CO)[C@@H](O)[C@H](O)[C@@H]2O)cc1,Activity,[1],0%
same,Activity,[2],0%
same,Activity,[3],6%
same,Activity,[4],14%
same,Activity,[5],0%
same,Activity,[6],0%
same,Activity,[7],0%
same,Activity,[8],100%
same,Activity,[9],0%
